In PubChem BioAssay (NCI) one finds TGI and GI50 data, which are given here for 16 compounds.

Some test systems named below: 786-0 renal; DMS 114 small cell lung; DMS 273 small cell lung; KM20L2 colon; LXFL 529 NSCLC; M19-MEL melanoma; OVCAR-4 ovarian; DLD-1 colon; SNB-78 CNS; XF 498 CNS; HOP-18 NSCLC; RXF-631 renal; HOP-92 NSCLC; P388 leukemia; P388/ADR leukemia; SN12K1 renal; BT-549 breast.
Assay in all cases: NCI tumour cell line growth inhibition, 48 h

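Cells were grown in 96-well plates and exposed to each compound for 48 hours at five concentrations; endpoints were interpolated linearly between bracketing concentrations, or set to the highest concentration if not reached. At the GI50, growth is halved. The concentration for full growth arrest is given as TGI.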

On to `COC1C=CC23c4cc5c(cc4C(O)OC2CN(C)C3C1)OCO5` (configuration not stated), for which the TGI in the test with 786-0 renal amounted to 11 µM; with DMS 114 small cell lung, 6.05 µM; in the test with DMS 273 small cell lung, 6.87 µM; in the test with KM20L2 colon, 9.1 µM; in the test on LXFL 529 NSCLC, 9.55 µM; with M19-MEL melanoma it was 8.82 µM. In addition, the TGI with OVCAR-4 ovarian is 9.77 µM.
On to `OCc1ccccc1C1CSCSC1`, for which the TGI with DLD-1 colon, in the test with DMS 114 small cell lung, in the test on DMS 273 small cell lung, in the test with LXFL 529 NSCLC, with M19-MEL melanoma and in the test on OVCAR-4 ovarian was above 100 µM throughout. Besides, the TGI with SNB-78 CNS and in the test on XF 498 CNS was above 100 µM each time.
`Cc1cc2cccc(Cl)c2nc1C(=O)c1ccccc1`: the TGI with DLD-1 colon, in the test on DMS 114 small cell lung, in the test with DMS 273 small cell lung, in the test with HOP-18 NSCLC, in the test with KM20L2 colon and in the test with LXFL 529 NSCLC was above 100 µM each time. Further, the TGI in the test on M19-MEL melanoma, in the test with OVCAR-4 ovarian, with RXF-631 renal, with SNB-78 CNS and with XF 498 CNS was above 100 µM throughout.
Regarding `CC(C)=CC1C(C(=O)O)C1(C)C` (configuration not stated), the TGI in the test on DLD-1 colon, in the test with DMS 114 small cell lung, with DMS 273 small cell lung, in the test on HOP-18 NSCLC, with HOP-92 NSCLC and in the test with KM20L2 colon was above 750 µM throughout. Further, the TGI was above 750 µM in the test on M19-MEL melanoma; above 750 µM in the test on OVCAR-4 ovarian; above 750 µM in the test with P388 leukemia; above 750000 nM in the test on P388/ADR leukemia; above 750 µM in the test on SN12K1 renal; above 75 µM in the test on XF 498 CNS.
On to `CC(=O)Nc1ccc(Cl)c(Cl)c1`, for which the TGI in the test with 786-0 renal, in the test with DLD-1 colon, in the test on DMS 114 small cell lung, with DMS 273 small cell lung, in the test with KM20L2 colon and with LXFL 529 NSCLC was above 100 µM each time. In addition, the TGI with M19-MEL melanoma and in the test with SNB-78 CNS was above 100 µM throughout.
With `COC(=O)C1CC(C=[N+](C)C)=C(SC)N1` (configuration not stated), the TGI in the test on 786-0 renal, in the test with BT-549 breast, with HOP-92 NSCLC and in the test on OVCAR-4 ovarian was above 100 µM in each case.
Regarding `O=C1C(Cl)N(c2ccccc2)C1c1c[nH]c2ccccc12` (configuration not stated), the TGI with DMS 114 small cell lung, in the test on HOP-92 NSCLC, in the test with KM20L2 colon, in the test on LXFL 529 NSCLC, in the test on M19-MEL melanoma and in the test on OVCAR-4 ovarian was above 100 µM each time. In the test on XF 498 CNS, the TGI was above 100 µM.
As to `O=C(OCc1ccccc1)OOC(=O)OCc1ccccc1`, the TGI with DLD-1 colon, with DMS 114 small cell lung, with HOP-92 NSCLC, with KM20L2 colon, in the test on LXFL 529 NSCLC and with M19-MEL melanoma was above 100 µM each time. Further, the TGI in the test with OVCAR-4 ovarian and with SNB-78 CNS was above 100 µM throughout.
On to `COc1ccc(CNc2nc3ccc(C(F)(F)F)cc3nc2-c2ccccc2)cc1OC`, for which the TGI in the test on DMS 273 small cell lung is above 100 µM; with HOP-18 NSCLC, above 100 µM; with HOP-92 NSCLC it was 15.5 µM; with KM20L2 colon, above 100 µM; in the test on LXFL 529 NSCLC, above 100 µM; in the test on M19-MEL melanoma, above 100 µM. Further, the TGI in the test on RXF-631 renal, in the test on SNB-78 CNS and in the test with XF 498 CNS was above 100 µM throughout.
Regarding `c1ccc(N=c2snc(-c3ccccc3)s2)cc1`, the TGI in the test on 786-0 renal, with DLD-1 colon, with DMS 114 small cell lung, in the test with DMS 273 small cell lung, with HOP-18 NSCLC and with KM20L2 colon was above 100 µM in each case. Further, the TGI in the test with LXFL 529 NSCLC, in the test with M19-MEL melanoma, in the test with OVCAR-4 ovarian and with SNB-78 CNS was above 100 µM in each case.
Turning to `O=C1/C(=C/c2ccc(F)cc2)CNC/C1=C\c1ccc(F)cc1`, the TGI with 786-0 renal was 1.45 µM; in the test on BT-549 breast, 3.67 µM; with HOP-92 NSCLC it was above 21.5 µM; in the test with OVCAR-4 ovarian it was above 36.8 µM.
In the case of `O=C1C(C=NCCc2c[nH]c3ccccc23)C(C(F)(F)F)=NN1c1nc2ccccc2s1` (configuration not stated), the TGI in the test with 786-0 renal is above 100 µM; in the test with BT-549 breast it was 66.3 µM; with HOP-92 NSCLC, 48.5 µM; with OVCAR-4 ovarian it was 63 µM.
For `Cc1cccc(N(CCC#N)S(=O)(=O)c2ccccc2)c1`, in that order: above 100 µM, above 100 µM, above 100 µM and above 100 µM.
As for `CC(C)/C(Cl)=N\OC(=O)NNc1ccccc1`, the TGI was above 100 µM in the test on 786-0 renal, above 100 µM with BT-549 breast, 35.3 µM in the test with HOP-92 NSCLC and above 100 µM in the test with OVCAR-4 ovarian.
As to `O=C(O)CNC(=O)c1ccc([As](=O)(O)O)cc1`, the TGI with 786-0 renal, in the test on BT-549 breast, in the test on HOP-92 NSCLC and with OVCAR-4 ovarian was above 100 µM in each case.
With `COc1cc([C@@H]2c3cc4c(cc3C[C@H]3COC(=O)[C@@H]32)OCO4)cc(OC)c1OC`, the TGI in the test on DLD-1 colon is above 50 µM; in the test on DMS 114 small cell lung it was 0.0167 µM; in the test on DMS 273 small cell lung, above 4.13 µM; with HOP-18 NSCLC, above 50 µM; in the test with M19-MEL melanoma it was above 50 µM; with OVCAR-4 ovarian, above 50 µM. Also, the TGI with P388 leukemia was above 15.8 µM; in the test with P388/ADR leukemia it was 502 nM; in the test on SN12K1 renal, above 3.86 µM; in the test with SNB-78 CNS, above 50 µM; in the test with XF 498 CNS it was 1.88 µM. Moreover, the GI50 is 7.52 nM in the test on HOP-92 NSCLC and 21.8 µM in the test with OVCAR-4 ovarian.
